Measurements taken from the CheMixHub viscosity set.

Experiment: xn = mol fraction of the nth substance listed

CC(=O)O.NCCO + CCCCO
298.15 K, 101.3 kPa
Settings | viscosity [mPa·s]
x2 = 0.088 | 1548
x2 = 0.179 | 734.1
x2 = 0.272 | 460.3
x2 = 0.369 | 325.3
x2 = 0.476 | 190.3
x2 = 0.574 | 74.63
x2 = 0.666 | 30.51
x2 = 0.776 | 19.04
x2 = 0.881 | 14.02

CCN(CC)S(C)(=O)=O + CCCCO
303.15 K, 101.33 kPa
Settings | viscosity [mPa·s]
x1 = 0.0631 | 20450
x1 = 0.1404 | 19420
x1 = 0.2197 | 19180
x1 = 0.2937 | 19420
x1 = 0.3626 | 19850
x1 = 0.4515 | 20780
x1 = 0.5227 | 21750
x1 = 0.6053 | 23400
x1 = 0.6908 | 25500
x1 = 0.7579 | 27420
x1 = 0.8437 | 30890
x1 = 0.9281 | 35520

CS(C)=O + CCCCO
viscosity [mPa·s]
Settings | 298.15 K | 303.15 K
101 kPa, x1 = 0.09862 | – | 1.847
101 kPa, x1 = 0.1941 | – | 1.698
101 kPa, x1 = 0.2035 | – | 1.685
101 kPa, x1 = 0.3043 | – | 1.581
101 kPa, x1 = 0.3691 | – | 1.528
101 kPa, x1 = 0.3883 | – | 1.55
101 kPa, x1 = 0.4941 | – | 1.534
101 kPa, x1 = 0.5276 | – | 1.497
101 kPa, x1 = 0.5875 | – | 1.564
101 kPa, x1 = 0.6718 | – | 1.506
101 kPa, x1 = 0.6844 | – | 1.605
101 kPa, x1 = 0.803 | – | 1.636
101 kPa, x1 = 0.8037 | – | 1.543
101 kPa, x1 = 0.9005 | – | 1.682
101 kPa, x1 = 0.9297 | – | 1.672
101.3 kPa, x1 = 0.0944 | 2.225 | 1.97
101.3 kPa, x1 = 0.192 | 2.017 | 1.848
101.3 kPa, x1 = 0.2893 | 1.88 | 1.671
101.3 kPa, x1 = 0.3876 | 1.78 | 1.604
101.3 kPa, x1 = 0.4688 | 1.773 | 1.59
101.3 kPa, x1 = 0.5874 | 1.77 | 1.599
101.3 kPa, x1 = 0.6887 | 1.796 | 1.625
101.3 kPa, x1 = 0.7915 | 1.859 | 1.668
101.3 kPa, x1 = 0.8839 | 1.905 | 1.723

O=C(O)C=Cc1ccccc1 + CCCCO
viscosity [mPa·s]
Settings | x1 = 0.0728 | x1 = 0.0959 | x1 = 0.114
308.15 K, 101.33 kPa | 2.48 | – | –
313.15 K, 101.33 kPa | 2.19 | – | –
318.15 K, 101 kPa | 1.932 | 2.073 | 2.18
318.15 K, 101.33 kPa | 1.932 | 2.073 | –
323.15 K, 101.33 kPa | 1.712 | 1.838 | –

CCCCC + CCCO
298.15 K, 101.33 kPa
Settings | viscosity [mPa·s]
x2 = 0.0291 | 0.242
x2 = 0.0777 | 0.256
x2 = 0.1952 | 0.29
x2 = 0.3332 | 0.357
x2 = 0.403 | 0.41
x2 = 0.4771 | 0.484
x2 = 0.6076 | 0.666
x2 = 0.7373 | 0.949
x2 = 0.8545 | 1.333
x2 = 0.9586 | 1.778

CCCCCCCCn1cc[n+](C)c1.O=[N+]([O-])[O-] + CCCO
101 kPa
Settings | viscosity [mPa·s]
293.15 K, x2 = 0.107 | 510.9
298.15 K, x2 = 0.258 | 191.5

CCCCCCCO + CCCO
viscosity [mPa·s], 101 kPa
Settings | 298.15 K | 308.15 K | 318.15 K
x2 = 0.05 | 5.555 | 4.09 | 3.044
x2 = 0.1 | 5.333 | 3.923 | 2.935
x2 = 0.15 | 5.11 | 3.762 | 2.83
x2 = 0.2 | 4.888 | 3.607 | 2.728
x2 = 0.25 | 4.667 | 3.456 | 2.627
x2 = 0.3 | 4.449 | 3.309 | 2.528
x2 = 0.35 | 4.235 | 3.166 | 2.429
x2 = 0.4 | 4.026 | 3.027 | 2.331
x2 = 0.45 | 3.822 | 2.89 | 2.234
x2 = 0.5 | 3.623 | 2.756 | 2.136
x2 = 0.55 | 3.431 | 2.624 | 2.039
x2 = 0.6 | 3.243 | 2.494 | 1.942
x2 = 0.65 | 3.061 | 2.364 | 1.845
x2 = 0.7 | 2.882 | 2.236 | 1.748
x2 = 0.75 | 2.707 | 2.107 | 1.654
x2 = 0.8 | 2.534 | 1.979 | 1.56
x2 = 0.85 | 2.362 | 1.849 | 1.47
x2 = 0.9 | 2.189 | 1.719 | 1.382
x2 = 0.95 | 2.013 | 1.587 | 1.299

CCN(CC)S(C)(=O)=O + CCCO
303.15 K, 101.33 kPa
Settings | viscosity [mPa·s]
x1 = 0.0661 | 16100
x1 = 0.1423 | 15830
x1 = 0.2148 | 16120
x1 = 0.3057 | 16930
x1 = 0.3821 | 17930
x1 = 0.4421 | 18840
x1 = 0.5219 | 20390
x1 = 0.5944 | 22040
x1 = 0.685 | 24610
x1 = 0.7587 | 27160
x1 = 0.8085 | 29250
x1 = 0.8907 | 33340
